Experimental data from patent publication US6140368A, “Naphthols useful in antiviral methods” (The Regents of the University of California, priority 1998, dated 2000).
Where two headings read alike, the source gives them in different places.

Experiments:
[1] = target: T1, HIV integrase (Human immunodeficiency virus type 1 group M subtype B, UniProt P04585); experiment: biochemical; settings: read-out: Inhibition of 3' processing activity (IC50)
[2] = target: T1, HIV integrase; experiment: biochemical; settings: read-out: Inhibition of strand transfer (IC50)
[3] = target: HIV reverse transcriptase (Human immunodeficiency virus type 1 group M subtype B, UniProt P03366); experiment: Reverse transcriptase scintillation proximity assay (Example 4, Table 2); type: biochemical; settings: for remaining activity at 10 µM: 0.05 h, read-out: % RT activity remaining at 10 μM; for remaining activity at 10 µM / % RT activity remaining at 10 μM: 10 μM inhibitor, relative to dimethyl sulfoxide = 100%; for % RT activity remaining at 10 μM: 3 min
Procedure: Reverse transcriptase ("RT") activity is measured using a scintillation proximity assay kit available from Amersham Life Sciences, Inc., which uses a biotin/streptavidin bead capture system. RNA-dependent polymerase activity is measured using purified […] and a synthetic 17mer/50mer RNA-DNA template-primer containing biotin at the 5' end of the DNA. The template-primer, buffer, dNTP, and inhibitor are incubated for 10 minutes at 37° C. before the RT is added. The final 100 μl reaction mixture contains: 39 nm of template primer, buffer (40 mM tris HCl at pH 8.0, 10 mM MgCl2, 60 mM KCl, 10 mM dithiothreitol); 75 nM of each dNTP except dTTP; 25 nM dTTP and 35 nM tritium labeled d*TTP; 10 μM inhibitor; and 1.0-2.0 μg of RT. After three minute incubation, the reaction is quenched with 40 μl of 0.56M EDTA. Then 10 μl of streptavidin SPA beads (in suspension) are added and incubated at 37° C. for 10 minutes. Finally, 850 μl of a buffer containing 10 mM Tris HCl pH 7.4 and 0.15M NaCl is added. The signal is produced by biotinylated polymers incorporating d*TTP binding to the streptavidin beads which stimulate the scintillant. The amount of d*TTP incorporated in the polymer is measured with a scintillation counter.
Compounds showing good inhibition will give a low number of counts/min (cpm). This number is related to a standard, dimethyl sulfoxide, which is given an arbitrary 100% relative activity. All cpm data in a single run are given a percent of this standard.

Structure (SMILES)	IC50 [1] [nM]	IC50 [2] [nM]	remaining activity at 10 µM [3] [%]	further results
CC(=O)Nc1ccc(N=Nc2c(S(=O)(=O)O)cc3cc(NC(=O)Nc4ccc5c(O)c(N=Nc6ccc(NC(C)=O)cc6)c(S(=O)(=O)O)cc5c4)ccc3c2O)cc1 [Compound 72]	1000	500		
O=C(O)Cc1ccc(N=Nc2c(S(=O)(=O)O)cc3cc(NC(=O)C(=O)Nc4ccc5c(O)c(N=Nc6ccc(CC(=O)O)cc6)c(S(=O)(=O)O)cc5c4)ccc3c2O)cc1 [Compound 93]	900	500		
O=C(Nc1ccc2c(O)c(N=Nc3cc(C(=O)O)ccc3C(=O)O)c(S(=O)(=O)O)cc2c1)C(=O)Nc1ccc2c(O)c(N=Nc3cc(C(=O)O)ccc3C(=O)O)c(S(=O)(=O)O)cc2c1 [Compound 104]	600	400		
COc1cc(N=Nc2c(S(=O)(=O)O)cc3cc(NC(=O)C(=O)Nc4ccc5c(O)c(N=Nc6cc(OC)c(OC)c(OC)c6)c(S(=O)(=O)O)cc5c4)ccc3c2O)cc(OC)c1OC [Compound 110]	1100	400		
COc1ccc(C(=O)O)c(N=Nc2c(S(=O)(=O)O)cc3cc(NC(=O)C(=O)Nc4ccc5c(O)c(N=Nc6c(C(=O)O)ccc(OC)c6OC)c(S(=O)(=O)O)cc5c4)ccc3c2O)c1OC [Compound 101]	500	2000		
O=C(Nc1ccc2c(O)c(N=Nc3ccccc3)c(S(=O)(=O)O)cc2c1)C(=O)Nc1ccc2c(O)c(N=Nc3ccccc3)c(S(=O)(=O)O)cc2c1 [Compound 106]	1500	400		
O=C(O)CCc1ccc(N=Nc2c(S(=O)(=O)O)cc3cc(NC(=O)C(=O)Nc4ccc5c(O)c(N=Nc6ccc(CCC(=O)O)cc6)c(S(=O)(=O)O)cc5c4)ccc3c2O)cc1 [Compound 94]	1000	400		
COc1cc(N=Nc2c(S(=O)(=O)O)cc3cc(NC(=O)Nc4ccc5c(O)c(N=Nc6cc(OC)c(OC)c(OC)c6)c(S(=O)(=O)O)cc5c4)ccc3c2O)cc(OC)c1OC [Compound 66]	800	500		
COc1ccc(N=Nc2c(S(=O)(=O)O)cc3cc(NC(=O)Nc4ccc5c(O)c(N=Nc6ccc(OC)cc6)c(S(=O)(=O)O)cc5c4)ccc3c2O)cc1 [Compound 73]	1000	600		
CC(=O)Nc1ccc(N=Nc2c(S(=O)(=O)O)cc3cc(NC(=O)C(=O)Nc4ccc5c(O)c(N=Nc6ccc(NC(C)=O)cc6)c(S(=O)(=O)O)cc5c4)ccc3c2O)cc1 [Compound 108]	1000	700		
O=C(O)CCC(NC(=O)c1ccc(N=Nc2c(S(=O)(=O)O)cc3cc(NC(=O)C(=O)Nc4ccc5c(O)c(N=Nc6ccc(C(=O)NC(CCC(=O)O)C(=O)O)cc6)c(S(=O)(=O)O)cc5c4)ccc3c2O)cc1)C(=O)O (stereo not drawn) [Compound 107]	700	500		
O=C(O)CC(C(=O)O)c1ccc(N=Nc2c(S(=O)(=O)O)cc3cc(NC(=O)C(=O)Nc4ccc5c(O)c(N=Nc6ccc(C(CC(=O)O)C(=O)O)cc6)c(S(=O)(=O)O)cc5c4)ccc3c2O)cc1 (stereo not drawn) [Compound 97]	500	1000		
COc1cc(N=Nc2c(S(=O)(=O)O)cc3cc(NC(=O)C(=O)Nc4ccc5c(O)c(N=Nc6cc(OC)c(C(=O)O)cc6Cl)c(S(=O)(=O)O)cc5c4)ccc3c2O)c(Cl)cc1C(=O)O [Compound 100]	400	700		
COc1cc(C(=O)O)c(N=Nc2c(S(=O)(=O)O)cc3cc(NC(=O)C(=O)Nc4ccc5c(O)c(N=Nc6c(C(=O)O)cc(OC)c(OC)c6OC)c(S(=O)(=O)O)cc5c4)ccc3c2O)c(OC)c1OC [Compound 102]	600	700		
Cc1cc2nc(N=Nc3c(S(=O)(=O)O)cc4cc(NC(=O)C(=O)Nc5ccc6c(O)c(N=Nc7nc8cc(C)c(C)cc8[nH]7)c(S(=O)(=O)O)cc6c5)ccc4c3O)[nH]c2cc1C [Compound 114]	1000	300		
CCOC(=O)c1c[nH]nc1N=Nc1c(S(=O)(=O)O)cc2cc(NC(=O)Nc3ccc4c(O)c(N=Nc5n[nH]cc5C(=O)OCC)c(S(=O)(=O)O)cc4c3)ccc2c1O [Compound 64]	> 3000	> 3000		
O=C(Nc1ccc2c(O)c(N=Nc3ccc(C(=O)O)cc3)c(S(=O)(=O)O)cc2c1)Nc1ccc2c(O)c(N=Nc3ccc(C(=O)O)cc3)c(S(=O)(=O)O)cc2c1 [Compound 67]	90	250		
O=C(O)c1c(F)c(F)c(N=Nc2c(S(=O)(=O)O)cc3cc(Nc4c(Nc5ccc6c(O)c(N=Nc7c(F)c(F)c(C(=O)O)c(F)c7F)c(S(=O)(=O)O)cc6c5)c(=O)c4=O)ccc3c2O)c(F)c1F [Compound 194]				IC50 ([3]; read-out: IC50 (RT activity)): 440 nM
CCOC(=O)c1ccc(NC(=O)Nc2ccc3c(O)cc(S(=O)(=O)O)cc3c2)cc1 [Compound 25]			86	

Structure (SMILES)	IC50 [1] [nM]	IC50 [2] [nM]	remaining activity at 10 µM [3] [%]	further results
COC(=O)c1cc(NC(=O)Nc2ccc3c4c(cccc24)C(=O)OC3=O)cc(C(=O)OC)c1 [Compound 83]			77	
O=C(O)CCCc1ccc(N=Nc2c(S(=O)(=O)O)cc3cc(NC(=O)c4ccc(C(=O)Nc5ccc6c(O)c(N=Nc7ccc(CCCC(=O)O)cc7)c(S(=O)(=O)O)cc6c5)cc4)ccc3c2O)cc1 [Compound 165]			3.7	
O=C(O)/C=C/c1ccc(N=Nc2c(S(=O)(=O)O)cc3cc(Nc4c(Nc5ccc6c(O)c(N=Nc7ccc(/C=C/C(=O)O)cc7)c(S(=O)(=O)O)cc6c5)c(=O)c4=O)ccc3c2O)cc1 [Compound 185]			0.6	
O=C(O)c1ccc(N=Nc2c(S(=O)(=O)O)cc3cc(NC(=O)c4ccc(C(=O)Nc5ccc6c(O)c(N=Nc7ccc(C(=O)O)cc7)c(S(=O)(=O)O)cc6c5)cc4)ccc3c2O)cc1 [Compound 169]				% RT activity remaining at 10 μM [3]: .15%
O=C(O)CCCCCc1ccc(N=Nc2c(S(=O)(=O)O)cc3cc(NC(=O)c4cc(=O)cc(C(=O)Nc5ccc6c(O)c(N=Nc7ccc(CCCCCC(=O)O)cc7)c(S(=O)(=O)O)cc6c5)o4)ccc3c2O)cc1 [Compound 135]			0.16	
O=C(O)c1ccc(C(=O)O)c(N=Nc2c(S(=O)(=O)O)cc3cc(NC(=O)c4ccc(C(=O)Nc5ccc6c(O)c(N=Nc7cc(C(=O)O)ccc7C(=O)O)c(S(=O)(=O)O)cc6c5)cc4)ccc3c2O)c1 [Compound 173]			27	
O=C(O)Cc1ccc(N=Nc2c(S(=O)(=O)O)cc3cc(NC(=O)c4cc(=O)cc(C(=O)Nc5ccc6c(O)c(N=Nc7ccc(CC(=O)O)cc7)c(S(=O)(=O)O)cc6c5)o4)ccc3c2O)cc1 [Compound 133]			0.4	
O=C(O)/C=C/c1ccc(N=Nc2c(S(=O)(=O)O)cc3cc(NC(=O)c4cc(O)cc(C(=O)Nc5ccc6c(O)c(N=Nc7ccc(/C=C/C(=O)O)cc7)c(S(=O)(=O)O)cc6c5)n4)ccc3c2O)cc1 [Compound 151]			0.2	
O=C(O)CC(C(=O)O)c1ccc(N=Nc2c(S(=O)(=O)O)cc3cc(NC(=O)c4cccc(C(=O)Nc5ccc6c(O)c(N=Nc7ccc(C(CC(=O)O)C(=O)O)cc7)c(S(=O)(=O)O)cc6c5)n4)ccc3c2O)cc1 (stereo not drawn) [Compound 124]			1.2	
COc1cc(N=Nc2c(S(=O)(=O)O)cc3cc(NC(=O)c4ccc(C(=O)Nc5ccc6c(O)c(N=Nc7cc(OC)c(OC)c(OC)c7)c(S(=O)(=O)O)cc6c5)cc4)ccc3c2O)cc(OC)c1OC [Compound 175]			62	
O=C(Nc1ccc2c(O)cc(S(=O)(=O)O)cc2c1)Nc1cccc2ccc(S(=O)(=O)O)cc12 [Compound 10]			88	
O=C(O)/C=C/c1ccc(N=Nc2c(S(=O)(=O)O)cc3cc(NC(=O)c4cc(=O)cc(C(=O)Nc5ccc6c(O)c(N=Nc7ccc(/C=C/C(=O)O)cc7)c(S(=O)(=O)O)cc6c5)o4)ccc3c2O)cc1 [Compound 137]			0.53	
O=C(O)CC(C(=O)O)c1ccc(N=Nc2c(S(=O)(=O)O)cc3cc(Nc4c(Nc5ccc6c(O)c(N=Nc7ccc(C(CC(=O)O)C(=O)O)cc7)c(S(=O)(=O)O)cc6c5)c(=O)c4=O)ccc3c2O)cc1 (stereo not drawn) [Compound 191]			0.3	
O=C(O)c1ccc(Cl)c(N=Nc2c(S(=O)(=O)O)cc3cc(NC(=O)c4ccc(C(=O)Nc5ccc6c(O)c(N=Nc7cc(C(=O)O)ccc7Cl)c(S(=O)(=O)O)cc6c5)cc4)ccc3c2O)c1 [Compound 172]			0.08	
O=C(Nc1ccc(S(=O)(=O)O)c2ccccc12)Nc1ccc(S(=O)(=O)O)c2ccccc12 [Compound 79]			78	
O=C(O)c1ccc(N=Nc2c(S(=O)(=O)O)cc3cc(NC(=O)c4cccc(C(=O)Nc5ccc6c(O)c(N=Nc7ccc(C(=O)O)cc7)c(S(=O)(=O)O)cc6c5)n4)ccc3c2O)cc1 [Compound 127]				% RT activity remaining at 10 μM [3]: .14%
COc1cc(C(=O)O)ccc1N=Nc1c(S(=O)(=O)O)cc2cc(NC(=O)c3ccc(C(=O)Nc4ccc5c(O)c(N=Nc6ccc(C(=O)O)cc6OC)c(S(=O)(=O)O)cc5c4)cc3)ccc2c1O [Compound 167]			0.26	
COC(=O)c1cc(NC(=O)Nc2ccc3c(S(=O)(=O)O)cc(S(=O)(=O)O)cc3c2)cc(C(=O)OC)c1 [Compound 26]			88	
